What was measured:
[1] = molecular target: T1, MycN Protein (Homo sapiens, UniProt P04198); assay: Degradation of MycN protein, Western blot band density in cells; type: cell-based; details: HL-60 or SKNBE2 cells; 6 uL of compound (1 mM) added to 3 mL cells; 6 hours; Western blot band density (ImageJ)
T1 construct: endogenous in cells; host or cells: HL-60 or SKNBE2
T1 sequence (P04198 1-464): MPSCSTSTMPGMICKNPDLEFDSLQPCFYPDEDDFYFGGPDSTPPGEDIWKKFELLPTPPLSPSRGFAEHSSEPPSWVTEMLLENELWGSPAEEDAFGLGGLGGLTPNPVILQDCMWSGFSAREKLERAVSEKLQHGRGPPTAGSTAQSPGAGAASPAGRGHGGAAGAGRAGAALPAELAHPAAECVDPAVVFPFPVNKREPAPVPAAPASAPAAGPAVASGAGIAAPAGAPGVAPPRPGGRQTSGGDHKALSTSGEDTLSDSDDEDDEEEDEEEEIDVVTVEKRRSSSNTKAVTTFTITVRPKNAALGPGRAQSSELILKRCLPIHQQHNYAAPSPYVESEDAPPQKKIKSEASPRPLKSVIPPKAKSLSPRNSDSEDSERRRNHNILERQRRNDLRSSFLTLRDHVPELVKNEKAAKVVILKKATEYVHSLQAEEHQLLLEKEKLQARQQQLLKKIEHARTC
Procedure: (§1) In a T150 flask was plated either 2×10^6 of HL-60 (human leukemia cell line) or SKNBE2 (neuroblastoma cell line) cells in a total of 30 mL containing Roswell Park Memorial Institute (RPMI) 1640 Medium (Thermo Fisher, Cat. #11875-085), 10% Fetal Bovine Serum (FBS, Thermo Fisher: Cat. #10437-028), 1% Penicillin/streptomycin (Thermo Fisher: Cat. #10378016), and 1% Amophotericin B (Thermo Fisher, Cat. #15290026). The cells were split every 72 hours by reseeding the HL-60 or SKNBE2 cells, and the passage number was noted. It is noteworthy that cell cultures that were above 40 passages were not used, and most experiments were done with cells of less than 30 passages.
(§2) In a 6-well cell culture plate, a total of 3 mL of either 1×10^6 cells/mL of HL-60 or SKNBE2 cells were seeded, resulting in a total of 3×10^6 cells per well. To each well containing 3 mL of either HL-60 or SKNBE2 cell line was added 6 uL of MycN modulating compound (1 mM) and the resulting plate was shaken from left to right, and not swirled. After 6 hours, the cells were placed in a 15 mL falcon tube and spun at 500 Gs at 4° C. in a swinging bucket centrifuge. The medium was then carefully removed without disturbing the pellet. The pellet was then washed with 3 mLs of chilled phosphate buffered saline (PBS) and subjected to the spin cycle. PBS was then removed and the pellet was lysed in 200 uL of radioimmunoprecipitation (RIPA) lysis buffer (Thermo Fisher: Cat. #899000) that is supplemented with protease and phosphatase inhibitors (Thermo Fisher: Cat. #A32959). The cell lysate was then subjected to spinning in a centrifuge for 10 minutes at 13000G at 4° C. The supernatant was then carefully transferred to a fresh eppendorf tube without disturbing the pellet (˜180 uL). The protein concentration of the cell lysate was then determined by using a bicinchoninic acid (BCA assay) according to manufacturer's protocol (Thermo Fisher: Cat. #23227).
(§3) Cell lysate, approximately 25 ug-30 ug, was loaded per well in a 4-20% polyacrylamide gel (Biorad. Cat. #5671094). After running the dye front off of the gel, the gel was transferred to a nitrocellulose membrane (Biorad: Cat. #1704159) using the transblot turbo system (Biorad: Cat. #1704150) according to manufacturer's protocol. After transferring for 30 minutes, the membrane was blocked with 5% BSA for 1 hour at room temperature. The BSA was then washed off and the primary antibody of choice (1:500) was added, and the membrane was incubated with the primary antibody at 4° C. for overnight. The next morning, the primary antibody was removed and the membrane was washed with 1×-TBST for 10 minutes and repeated three more times. Following the last wash, a secondary antibody (Molecular Devices. Cat. #R8209 or R8208) was added at 1:5000 dilution and incubated for 1 hour at room temperature. Following the incubation with the secondary antibody, the membrane was washed with 1×-TBST for 10 minutes and repeated three more times. Following the last wash, the membrane was washed with de-ionized water twice and dried for at least two hours. Once the membrane is completely dry, the Molecular Devices Spectra Max western system was used to observe the bands. The western image was saved and the band density was measured with ImageJ software.

[2] = molecular target: T2, MycC Protein (Homo sapiens, UniProt P01106); assay: Degradation of MycC protein, Western blot band density in cells; type: cell-based; details: HL-60 or SKNBE2 cells; 6 uL of compound (1 mM) added to 3 mL cells; 6 hours; Western blot band density (ImageJ)
T2 construct: endogenous in cells; host or cells: HL-60 or SKNBE2
T2 sequence (P01106 whole entry): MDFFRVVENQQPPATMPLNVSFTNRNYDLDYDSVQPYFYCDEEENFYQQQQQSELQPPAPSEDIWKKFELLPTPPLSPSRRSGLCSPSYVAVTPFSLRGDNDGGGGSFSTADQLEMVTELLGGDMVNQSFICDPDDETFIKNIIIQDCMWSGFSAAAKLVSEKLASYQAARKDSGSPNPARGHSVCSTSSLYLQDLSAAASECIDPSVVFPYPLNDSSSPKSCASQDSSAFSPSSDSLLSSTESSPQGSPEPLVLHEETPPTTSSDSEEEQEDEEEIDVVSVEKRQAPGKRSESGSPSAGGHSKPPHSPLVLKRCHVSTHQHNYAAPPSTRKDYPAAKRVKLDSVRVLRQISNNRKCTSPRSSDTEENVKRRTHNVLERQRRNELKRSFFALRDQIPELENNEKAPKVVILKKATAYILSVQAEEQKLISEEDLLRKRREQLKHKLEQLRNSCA
Procedure: as §1, §2, §3

| Dmax at 2 µM [1] | Dmax at 2 µM [2] | SMILES | % Degradation of MycN [1] | % Degradation of MycC [2] |
| --- | --- | --- | --- | --- |
| < 20% | < 20% | O=C(NC1CCCC(N2CCCC2=O)C1)N[C@H]1CC[C@H](Nc2nccc(Nc3cc(C4CCCC4)[nH]n3)n2)CC1 (mixture of isomers) [Compound 27, 1-((1R,4R)-4-((4-((5-cyclopentyl-1H-pyrazol-3-yl)amino)pyrimidin-2-yl)amino)cyclohexyl)-3-(3-(2-oxopyrrolidin-1-yl)cyclohexyl)urea] | – | – |
| – | – | N#Cc1ccc2c(c1)CC(NC(=O)N[C@H]1CC[C@H](Nc3nccc(Nc4cc(C5CCCC5)[nH]n4)n3)CC1)C2 (mixture of isomers) [Compound 11 (Racemic), 1-(5-cyano-2,3-dihydro-1H-inden-2-yl)-3-((1R,4R)-4-((4-((5-cyclopentyl-1H-pyrazol-3-yl)amino)pyrimidin-2-yl)amino)cyclohexyl)urea] | **** (****: degradation 80-100%) | **** (****: degradation 80-100%) |
| – | – | CN(c1nccc(Nc2cc(C3CCCC3)[nH]n2)n1)C1CCC(NC(=O)NC2Cc3ccc(C#N)cc3C2)CC1 (racemic) [Compound 16 (Racemic), 1-(5-cyano-2,3-dihydro-1H-inden-2-yl)-3-((1R,4R)-4-((4-((5-cyclopentyl-1H-pyrazol-3-yl)amino)pyrimidin-2-yl)(methyl)amino)cyclohexyl)urea] | **** (****: degradation 80-100%) | **** (****: degradation 80-100%) |
| – | – | CN(c1nccc(Nc2cc(C3CCCC3)[nH]n2)n1)C1CCC(NC(=O)N[C@H]2CCC[C@@H](C(F)(F)F)C2)CC1 (mixture of isomers) [Compound 121 (Racemic), 1-((1R,4S)-4-((4-((5-cyclopentyl-1H-pyrazol-3-yl)amino)pyrimidin-2-yl)(methyl)amino)cyclohexyl)-3-((1S,3R)-3-(trifluoromethyl)cyclohexyl)urea] | *** (***: degradation 50-79%) | *** (***: degradation 50-79%) |
| 20 to 49% | < 20% | CC(=O)N1CCC(NC(=O)N[C@H]2CC[C@H](Nc3nccc(Nc4cc(C5CCCC5)[nH]n4)n3)CC2)CC1 [Compound 2, 1-(1-acetylpiperidin-4-yl)-3-((1R,4R)-4-((4-((5-cyclopentyl-1H-pyrazol-3-yl)amino)pyrimidin-2-yl)amino)cyclohexyl)urea] | – | – |
| 20 to 49% | 50 to 79% | CS(=O)(=O)c1ccc2c(c1)CC(NC(=O)N[C@H]1CC[C@H](Nc3nccc(Nc4cc(C5CCCC5)[nH]n4)n3)CC1)C2 (stereo partly drawn) [Compound 3, 1-((1R,4R)-4-((4-((5-cyclopentyl-1H-pyrazol-3-yl)amino)pyrimidin-2-yl)amino)cyclohexyl)-3-(5-(methylsulfonyl)-2,3-dihydro-1H-inden-2-yl)urea] | – | – |
| 20 to 49% | 80 to 100% | CC(NC(=O)N[C@H]1CC[C@H](Nc2nccc(Nc3cc(C4CCCC4)[nH]n3)n2)CC1)c1ccccn1 (some centres unmarked) [Compound 4] | – | – |
| 20 to 49% | < 20% | N#Cc1ccc2c(c1)CC(NC(=O)N[C@H]1CC[C@H](Nc3nccc(Nc4cc(C5CCOC5)[nH]n4)n3)CC1)C2 (stereo partly drawn) [Compound 5, 1-(5-cyano-2,3-dihydro-1H-indene-2-yl)-3-((1R,4R)-4-((4-((5-(tetrahydrofuran-3-yl)-1H-pyrazol-3-yl)amino)pyrimidine-2-yl)amino)cyclohexyl)urea] | – | – |
| – | – | Cc1cc(Nc2ccnc(NC3CCC(N)CC3)n2)n[nH]1 [Compound 6, N^2-((1R,4R)-4-aminocyclohexyl)-N^4-(5-methyl-1H-pyrazol-3-yl)pyrimidine-2,4-diamine] | * (*: degradation <20%) | ** (**: degradation 20-49%) |
| < 20% | 20 to 49% | CCc1cc(Nc2ccnc(N[C@H]3CC[C@H](NC(=O)NC4Cc5ccc(C#N)cc5C4)CC3)n2)n[nH]1 (stereo partly drawn) [Compound 8, 1-(5-cyano-2,3-dihydro-1H-inden-2-yl)-3-((1R,4R)-4-((4-((5-ethyl-1H-pyrazol-3-yl)amino)pyrimidin-2-yl)amino)cyclohexyl)urea] | – | – |
| – | – | N#Cc1ccc2c(c1)CC(NC(=O)N[C@H]1CC[C@H](Nc3nccc(Nc4cc(C5CCCC5)[nH]n4)n3)CC1)C2 (stereo partly drawn) [Compound 11 (Fraction 1), 1-(5-cyano-2,3-dihydro-1H-inden-2-yl)-3-((1R,4R)-4-((4-((5-cyclopentyl-1H-pyrazol-3-yl)amino)pyrimidin-2-yl)amino)cyclohexyl)urea] | ** (**: degradation 20-49%) | **** (****: degradation 80-100%) |
| 20 to 49% | – | O=C(Nc1cccc(C(F)(F)F)c1)N[C@@H]1CC[C@@H](Nc2nccc(Nc3cc(C4CCCC4)[nH]n3)n2)C1 [Compound 82] | – | – |
| 20 to 49% | – | CN1CCC(NC(=O)N[C@H]2CC[C@H](Nc3nccc(Nc4cc(C5CCCC5)[nH]n4)n3)CC2)CC1 [Compound 97, 1-((1R,4R)-4-((4-((5-cyclopentyl-1H-pyrazol-3-yl)amino)pyrimidin-2-yl)amino)cyclohexyl)-3-(1-methylpiperidin-4-yl)urea] | – | – |
| < 20% | – | CN(C)C(=N)c1ccc2c(c1)CC(NC(=O)N[C@H]1CC[C@H](Nc3nccc(Nc4cc(C5CCCC5)[nH]n4)n3)CC1)C2 (some centres unmarked) [Compound 98] | – | – |
| < 20% | – | N=C(NC1COC1)c1ccc2c(c1)CC(NC(=O)N[C@H]1CC[C@H](Nc3nccc(Nc4cc(C5CCCC5)[nH]n4)n3)CC1)C2 (some centres unmarked) [Compound 99] | – | – |
| < 20% | – | O=C(NC1Cc2ccc(C3=NCC(O)CN3)cc2C1)N[C@H]1CC[C@H](Nc2nccc(Nc3cc(C4CCCC4)[nH]n3)n2)CC1 (some centres unmarked) [Compound 100] | – | – |
| 50 to 79% | – | CN(c1nccc(Nc2cc(C3CCCC3)[nH]n2)n1)[C@H]1CC[C@H](NC(=O)Nc2cccc(C(F)(F)F)c2)CC1 [Compound 146, 1-((1R,4R)-4-((4-((5-cyclopentyl-1H-pyrazol-3-yl)amino)pyrimidin-2-yl)(methyl)amino)cyclohexyl)-3-(3-(trifluoromethyl)phenyl)urea] | – | – |
| 80 to 100% | – | CN(c1nccc(Nc2cc(C3CC3)[nH]n2)n1)[C@H]1CC[C@H](NC(=O)Nc2cccc(C(F)(F)F)c2)CC1 [Compound 147, 1-((1R,4R)-4-((4-((5-cyclopropyl-1H-pyrazol-3-yl)amino)pyrimidin-2-yl)(methyl)amino)cyclohexyl)-3-(3-(trifluoromethyl)phenyl)urea] | – | – |
| 50 to 79% | – | CN(c1nccc(Nc2cc(C3CC3)[nH]n2)n1)[C@H]1CC[C@H](NC(=O)NC2Cc3cc(F)c(F)cc3C2)CC1 [Compound 151, 1-((1R,4R)-4-((4-((5-cyclopropyl-1H-pyrazol-3-yl)amino)pyrimidin-2-yl)(methyl)amino)cyclohexyl)-3-(5,6-difluoro-2,3-dihydro-1H-inden-2-yl)urea] | – | – |

| SMILES | Dmax at 2 µM [1] | Dmax at 2 µM [2] | % Degradation of MycN [1] | % Degradation of MycC [2] |
| --- | --- | --- | --- | --- |
| O=C(NC1CC2CCC(C1)N2C1CC1)N[C@H]1CC[C@H](Nc2nccc(Nc3cc(C4CCCC4)[nH]n3)n2)CC1 (stereo partly drawn) [Compound 61, 1-((1R,4R)-4-((4-((5-cyclopentyl-1H-pyrazol-3-yl)amino)pyrimidin-2-yl)amino)cyclohexyl)-3-(8-cyclopropyl-8-azabicyclo[3.2.1]octan-3-yl)urea] | < 20% | – | – | – |
| O=C(NC12CCN(CC1)CC2)N[C@H]1CC[C@H](Nc2nccc(Nc3cc(C4CCCC4)[nH]n3)n2)CC1 [Compound 68] | 20 to 49% | – | – | – |
